Measurements as given in patent US20090117613A1, “Method for redox reaction using an old yellow enzyme” (priority 2007, published 2009).

Assays:
Type in all cases: binding
[1] = target: T1, Geobacillus kaustophilus Old Yellow Enzyme (GkOYE, YP—148185.1) mutant H164A/H167A (Geobacillus kaustophilus, UniProt Q5KXG9, H164A/H167A); test: Titration of GkOYE double mutant H164A/H167A with pHBA
T1 construct: made in house; host or cells: E. coli DH5alpha
Description: (§1) Mutants of GkOYE (Y28F, H164A, H167A; H164A/H167A; 2 clones each) were transformed into and expressed in E. coli DH5alpha.

[2] = target: T2, Geobacillus kaustophilus Old Yellow Enzyme (GkOYE, YP—148185.1), wild type (Geobacillus kaustophilus, UniProt Q5KXG9); test: Titration of wild type GkOYE with pHBA
T2 construct: made in house; host or cells: E. coli DH5α
T2 sequence (Q5KXG9 1-340): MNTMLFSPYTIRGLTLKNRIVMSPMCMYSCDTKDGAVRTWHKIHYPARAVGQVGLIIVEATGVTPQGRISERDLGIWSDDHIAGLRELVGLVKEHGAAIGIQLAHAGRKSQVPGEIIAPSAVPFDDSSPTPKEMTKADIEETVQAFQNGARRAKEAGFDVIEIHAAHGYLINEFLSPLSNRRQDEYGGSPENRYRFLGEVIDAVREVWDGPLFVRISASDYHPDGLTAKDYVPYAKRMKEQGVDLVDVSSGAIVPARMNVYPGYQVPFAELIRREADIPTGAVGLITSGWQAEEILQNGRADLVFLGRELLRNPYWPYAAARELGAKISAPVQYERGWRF
Description: as §1

[3] = target: T3, Geobacillus kaustophilus Old Yellow Enzyme (GkOYE, YP—148185.1) mutant Y28F (Geobacillus kaustophilus, UniProt Q5KXG9, Y28F); test: Titration of GkOYE mutant Y28F with pHBA
T3 construct: made in house; host or cells: E. coli DH5alpha
Description: as §1

[4] = target: T4, Geobacillus kaustophilus Old Yellow Enzyme (GkOYE, YP—148185.1) mutant H164A (Geobacillus kaustophilus, UniProt Q5KXG9, H164A); test: Titration of GkOYE mutant H164A with pHBA
T4 construct: made in house; host or cells: E. coli DH5alpha
Description: as §1

[5] = target: T5, Geobacillus kaustophilus Old Yellow Enzyme (GkOYE, YP—148185.1) mutant H167A (Geobacillus kaustophilus, UniProt Q5KXG9, H167A); test: Titration of GkOYE mutant H167A with pHBA
T5 construct: made in house; host or cells: E. coli DH5alpha
T5 sequence (Q5KXG9 whole entry H167A): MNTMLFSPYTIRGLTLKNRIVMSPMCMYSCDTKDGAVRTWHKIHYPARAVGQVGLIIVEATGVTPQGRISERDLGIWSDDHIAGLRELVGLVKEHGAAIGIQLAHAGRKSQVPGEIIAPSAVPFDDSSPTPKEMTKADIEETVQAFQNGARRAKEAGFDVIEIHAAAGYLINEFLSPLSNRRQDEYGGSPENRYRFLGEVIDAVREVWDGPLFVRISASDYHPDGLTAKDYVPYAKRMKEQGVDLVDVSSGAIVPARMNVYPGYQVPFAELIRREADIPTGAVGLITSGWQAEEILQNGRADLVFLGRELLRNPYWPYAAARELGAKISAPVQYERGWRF
Description: as §1

T3 sequence (Q5KXG9 whole entry Y28F): as the sequence (Q5KXG9 whole entry H167A) above, with Y28F, A167H counted along it
T4 sequence (Q5KXG9 whole entry H164A): as the sequence (Q5KXG9 whole entry H167A) above, with H164A, A167H counted along it
T1 sequence (Q5KXG9 whole entry H164A/H167A): as the sequence (Q5KXG9 whole entry H167A) above, with H164A counted along it

O=Cc1ccc(O)cc1 [pHBA]
Kd [1]: 1 to 10 mM
Kd [2]: 3.1 µM
Kd [3]: 1 to 10 mM
Kd [4]: 1 to 10 mM
Kd [5]: 1 to 10 mM
